Assay results reported in US10821115B2, “Compounds that inhibit Mcl-1 protein” (priority 2017, dated 2020).

These molecules were tested on human multiple myeloma cell line, OPM-2 (assay: Cell viability assay (OPM-2 10 FBS), CellTiter-Glo). Settings: Homo sapiens, OPM-2, 16 h, read-out: OPM-2 10% FBS IC50 IP, OPM-2 cells, 10% FBS, 16 h incubation.
Format: cell-based
Experimental: Cell viability assay (OPM-2 10 FBS)
The human multiple myeloma cell line, OPM-2, was cultured in complete growth medium containing RPMI 1640 and 10% fetal bovine serum (FBS). Cells were seeded into 384-well plates at 3000 cells/well density in complete growth medium containing 10% FBS, and incubated for 16 h with serially diluted test compounds in a 37° C. incubator with 5% CO2. Cell viability was tested using CellTiter-Glo® assay (Promega, Madison, Wis.) according to the manufacturer recommendations. Luminescence was determined using an EnVision® Multilabel plate reader 25 min after the addition of detection reagent. IC50 values were then calculated with Xlfit using a logistical 4-parameter fit model in GraphPad Prism (GraphPad Software, San Diego, Calif.) or in Genedata Screener® (Genedata, Basel, Switzerland).

Structure (SMILES)	IC50 [nM]
CC[C@@H]1CC/C=C/[C@@](CN2CCN3CCCC[C@@H]3C2)(OC)[C@@H]2CC[C@H]2CN2C[C@@]3(CCCc4cc(Cl)ccc43)COc3ccc(cc32)C(=O)N(C)S1(=O)=O [Example 33, (1 S,3′R,6′R,7′R,8′E,12′R)-6-chloro-12′-ethyl-7′-methoxy-14′-methyl-7′-((9aR)-octahydro-2H-pyrido[1,2-a]pyrazin-2-ylmethyl)-3,4-dihydro-2H,15′H-spiro[naphthalene-1,22′-[20]oxa[13]thia[1,14]diazatetracyclo[14.7.2.0-3,6˜.0˜19,24˜]pentacosa[8,16,18,24]tetraen]-15′-one 13′,13′-dioxide]	5570
CO[C@@]1(CNCCN2CCOCC2)/C=C/C[C@H](C)[C@@H](C)S(=O)(=O)NC(=O)c2ccc3c(c2)N(C[C@@H]2CC[C@H]21)C[C@@]1(CCCc2cc(Cl)ccc21)CO3 [Example 34, (1 S,3′R,6′R,7′S,8′E,11′S,12′R)-6-chloro-7′-methoxy-11′,12′-dimethyl-7′-(((2-(4-morpholinyl)ethyl)amino)methyl)-3,4-dihydro-2H, 15′H-spiro[naphthalene-1,22′-[20]oxa[13]thia[1,14]diazatetracyclo[14.7.2.0˜3,6˜.0˜19,24˜]pentacosa[8,16,18,24]tetraen]-15′-one 13′,13′-dioxide]	379
CO[C@]1(CNCCN2CCOCC2)/C=C/C[C@H](C)[C@@H](C)S(=O)(=O)NC(=O)c2ccc3c(c2)N(C[C@@H]2CC[C@H]21)C[C@@]1(CCCc2cc(Cl)ccc21)CO3 [Example 36, (1S,3′R,6′R,7′R,8′E,11′S,12′R)-6-chloro-7′-methoxy-11′,12′-dimethyl-7′-(((2-(4-morpholinyl)ethyl)amino)methyl)-3,4-dihydro-2H,15′H-spiro[naphthalene-1,22′-[20]oxa[13]thia[1,14]diazatetracyclo [14.7.2.0~3,6~.0~19,24~]pentacosa[8,16,18,24]tetraen]-15′-one 13′,13′-dioxide]	518
CO[C@]1(CN2CCN3CCCC[C@H]3C2)/C=C/C[C@H](C)[C@@H](C)S(=O)(=O)NC(=O)c2ccc3c(c2)N(C[C@@H]2CC[C@H]21)C[C@@]1(CCCc2cc(Cl)ccc21)CO3 [Example 78, (1S,3′R,6′R,7′R,8′E,11′S,12′R)-6-chloro-7′-methoxy-11′,12′-dimethyl-7′-((9aS)-octahydro-2H-pyrido[1,2-a]pyrazin-2-ylmethyl)-3,4-dihydro-2H,15′H-spiro[naphthalene-1,22′-[20]oxa[13]thia[1,14]diazateracyclo [14.7.2.0~3,6~.0~19,24~]pentacosa[8,16,18,24]tetraen]-15′-one 13′,13′-dioxide]	175
CO[C@@]1(CN2CCN3CCCC[C@H]3C2)/C=C/C[C@H](C)[C@@H](C)S(=O)(=O)NC(=O)c2ccc3c(c2)N(C[C@@H]2CC[C@H]21)C[C@@]1(CCCc2cc(Cl)ccc21)CO3 [Example 79, (1S,3′R,6′R,7′S,8′E,11′S,12′R)-6-chloro-7′-methoxy-11′,12′-dimethyl-7′-((9aS)-octahydro-2H-pyrido[1,2-a]pyrazin-2-ylmethyl)-3,4-dihydro-2H,15′H-spiro[naphthalene-1,22′-[20]oxa[13]thia[1,14]diazatetracyclo [14.7.2.0~3,6~.0~19,24~]pentacosa[8,16,18,24]tetraen]-15′-one 13′,13′-dioxide]	245
CO[C@@]1(CN2CCN(CCS(C)(=O)=O)CC2)/C=C/C[C@H](C)[C@@H](C)S(=O)(=O)NC(=O)c2ccc3c(c2)N(C[C@@H]2CC[C@H]21)C[C@@]1(CCCc2cc(Cl)ccc21)CO3 [Example 81]	112
CO[C@]1(CN2CCN(CC(F)(F)F)CC2)/C=C/C[C@H](C)[C@@H](C)S(=O)(=O)NC(=O)c2ccc3c(c2)N(C[C@@H]2CC[C@H]21)C[C@@]1(CCCc2cc(Cl)ccc21)CO3 [Example 93, (1S,3′R,6′R,7′R,8′E,11′S,12′R)-6-chloro-7′-methoxy-11′,12′-dimethyl-7′-((4-(2,2,2-trifluoroethyl)-1-piperazinyl)methyl)-3,4-dihydro-2H,15′H-spiro[naphthalene-1,22′-[20]oxa[13]thia[1,14]diazatetracyclo [14.7.2.0~3,6~.0~19,24~]pentacosa[8,16,18,24]tetraen]-15′-one 13′,13′-dioxide]	924
C[C@@H]1[C@@H](C)C/C=C/[C@@](O)(CN2CCOC[C@@H]2Cn2ccnc2)[C@@H]2CC[C@H]2CN2C[C@@]3(CCCc4cc(Cl)ccc43)COc3ccc(cc32)C(=O)NS1(=O)=O [Example 100, (1 S,3′R,6′R,7′S,8′E,11′S, 12′R)-6-chloro-7′-hydroxy-7′-(((3S)-3-(1H-imidazol-1-ylmethyl)-4-morpholinyl)methyl)-11′,12′-dimethyl-3,4-dihydro-2H, 15′H-spiro[naphthalene-1,22′-[20]oxa[13]thia[1,14]diazatetracyclo[14.7.2.0-3,6˜.0˜19,24˜]pentacosa[8,16,18,24]tetraen]-15′-one 13′,13′-dioxide]	1650
CCO[C@]1(CN2CCN(C(COC)COC)CC2)/C=C/C[C@H](C)[C@@H](C)S(=O)(=O)NC(=O)c2ccc3c(c2)N(C[C@@H]2CC[C@H]21)C[C@@]1(CCCc2cc(Cl)ccc21)CO3 [Example 116, (1S,3′R,6′R,7′R,8′E,11′S,12′R)-6-chloro-7′-ethoxy-7′-((4-(2-methoxy-1-(methoxymethyl)ethyl)-1-piperazinyl)methyl)-11′,12′-dimethyl-3,4-dihydro-2H,15′H-spiro[naphthalene-1,22′-[20]oxa[13]thia[1,14]diazatetracyclo [14.7.2.0~3,6~.0~19,24~]pentacosa[8,16,18,24]tetraen]-15′-one 13′,13′-dioxide]	387
C[C@@H]1[C@@H](C)C/C=C/[C@@](O)(CNC(C)(C)C)[C@@H]2CC[C@H]2CN2C[C@@]3(CCCc4cc(Cl)ccc43)COc3ccc(cc32)C(=O)NS1(=O)=O [Example 125, (1S,3′R,6′R,7′S,8′E,11′S,12′R)-7′-((tert-butylamino)methyl)-6-chloro-7′-hydroxy-11′,12′-dimethyl-3,4-dihydro-2H,15′H-spiro[naphthalene-1,22′-[20]oxa[13]thia[1,14]diazatetracyclo[14.7.2.0-3,6˜.0˜19,24˜]pentacosa[8,16,18,24]tetraen]-15′-one 13′,13′-dioxide]	1480
CC(C)N(CCO)C[C@]1(O)/C=C/C[C@H](C)[C@@H](C)S(=O)(=O)NC(=O)c2ccc3c(c2)N(C[C@@H]2CC[C@H]21)C[C@@]1(CCCc2cc(Cl)ccc21)CO3 [Example 126, (1 S,3′R,6′R,7′S,8′E,11′S,12′R)-6-chloro-7′-hydroxy-7′-(((2-hydroxyethyl)(1-methylethyl)amino)methyl)-11′,12′-dimethyl-3,4-dihydro-2H, 15′H-spiro[naphthalene-1,22′-[20]oxa[13]thia[1,14]diazatetracyclo[14.7.2.0-3,6˜.0˜19,24˜]pentacosa[8,16,18,24]tetraen]-15′-one 13′,13′-dioxide]	900
C[C@@H]1[C@@H](C)C/C=C/[C@]2(CN(Cc3ccccc3)CCO2)[C@@H]2CC[C@H]2CN2C[C@@]3(CCCc4cc(Cl)ccc43)COc3ccc(cc32)C(=O)NS1(=O)=O [Example 138, (1 S,3′R,6′R,7′R,8′E, 11′S,12′R)-4″-benzyl-6-chloro-11′,12′-dimethyl-3,4-dihydro-2H,15′H-dispiro[naphthalene-1,22′-[20]oxa[13]thia[1,14]diazatetracyclo[14.7.2.0-3,6˜.0˜19,24˜]pentacosa[8,16,18,24]tetraene-7′,2″-[1,4]oxazinan]-15′-one 13′,13′-dioxide]	> 33300

Same assay, conditions: read-out: OPM-2 10% FBS IC50 IP; OPM-2 cells, 10% FBS, 16 h incubation

Structure (SMILES)	IC50 [nM]
COCC[C@@H]1[C@@H](C)C/C=C/[C@](CN2CCN3CCOC[C@@H]3C2)(OC)[C@@H]2CC[C@H]2CN2C[C@@]3(CCCc4cc(Cl)ccc43)COc3ccc(nc32)C(=O)NS1(=O)=O [Example 20, (1 S,3′R,6′R,7′S,8′E,11′S, 12′R)-6-chloro-7′-((9aS)-hexahydropyrazino[2,1-c][1,4]oxazin-8(1H)-ylmethyl)-7′-methoxy-12′-(2-methoxyethyl)-11′-methyl-3,4-dihydro-2H,15′H-spiro[naphthalene-1,22′-[20]oxa[13]thia[1,14,25]triazatetracyclo[14.7.2.0-3,6˜.0˜19,24˜]pentacosa[8,16,18,24]tetraen]-15′-one 13′,13′-dioxide]	22
CO[C@@]1(C(=O)N(C)C)/C=C/C[C@H](C)[C@@H](C)S(=O)(=O)NC(=O)c2ccc3c(c2)N(C[C@@H]2CC[C@H]21)C[C@@]1(CCCc2cc(Cl)ccc21)CO3 [Example 176, (1S,3′R,6′R,7′S,8′E,11′S,12′R)-6-chloro-7′-methoxy-N,N, 11′,12′-tetramethyl-15′-oxo-3,4-dihydro-2H-spiro[naphthalene-1,22′-[20]oxa[13]thia[1,14]diazatetracyclo[14.7.2.0-3,6˜.0˜19,24˜]pentacosa[8,16,18,24]tetraene]-7′-carboxamide 13′,13′-dioxide]	149
CO[C@]1(C(=O)N(C)C)/C=C/C[C@H](C)[C@@H](C)S(=O)(=O)NC(=O)c2ccc3c(c2)N(C[C@@H]2CC[C@H]21)C[C@@]1(CCCc2cc(Cl)ccc21)CO3 [Example 177, (1S,3′R,6′R,7′R,8′E,11′S,12′R)-6-chloro-7′-methoxy-N,N, 11′,12′-tetramethyl-15′-oxo-3,4-dihydro-2H-spiro[naphthalene-1,22′-[20]oxa[13]thia[1,14]diazatetracyclo[14.7.2.0-3,6˜.0˜19,24˜]pentacosa[8,16,18,24]tetraene]-7′-carboxamide 13′,13′-dioxide]	615
